Test results reported in patent US12460244B2, “Inhibitors of RNA-guided nuclease activity and uses thereof” (THE BROAD INSTITUTE, INC., priority 2018, dated 2025).
pIC50: −log10 of the molar value. “Also recorded” adds a separate entry of the source.

Tests used:
SpCas9 [1] = biological target: T1, SpCas9 (Streptococcus pyogenes serotype M1, UniProt Q99ZW2); settings: FIG. 16C
SpCas9 [2] = biological target: T1, SpCas9; assay: cell-based
[3] = test system: CRISPR mediated gene tagging with HiBiT; assay: CRISPR mediated gene tagging with HiBiT in cells (bioluminescence); type: cell-based; settings: various concentrations; FIG. 17B
SpCas9 [4] = biological target: T1, SpCas9; assay: Broad spectrum CRISPR inhibition, SpCas9 (FIG. 22A); type: biochemical, S. pyogenes
FnCpf1 = FnCpf1 (Francisella tularensis subsp. novicida, UniProt A0Q7Q2); type: biochemical; settings: FIG. 22B
Chain of FnCpf1 (A0Q7Q2 whole entry, looked up): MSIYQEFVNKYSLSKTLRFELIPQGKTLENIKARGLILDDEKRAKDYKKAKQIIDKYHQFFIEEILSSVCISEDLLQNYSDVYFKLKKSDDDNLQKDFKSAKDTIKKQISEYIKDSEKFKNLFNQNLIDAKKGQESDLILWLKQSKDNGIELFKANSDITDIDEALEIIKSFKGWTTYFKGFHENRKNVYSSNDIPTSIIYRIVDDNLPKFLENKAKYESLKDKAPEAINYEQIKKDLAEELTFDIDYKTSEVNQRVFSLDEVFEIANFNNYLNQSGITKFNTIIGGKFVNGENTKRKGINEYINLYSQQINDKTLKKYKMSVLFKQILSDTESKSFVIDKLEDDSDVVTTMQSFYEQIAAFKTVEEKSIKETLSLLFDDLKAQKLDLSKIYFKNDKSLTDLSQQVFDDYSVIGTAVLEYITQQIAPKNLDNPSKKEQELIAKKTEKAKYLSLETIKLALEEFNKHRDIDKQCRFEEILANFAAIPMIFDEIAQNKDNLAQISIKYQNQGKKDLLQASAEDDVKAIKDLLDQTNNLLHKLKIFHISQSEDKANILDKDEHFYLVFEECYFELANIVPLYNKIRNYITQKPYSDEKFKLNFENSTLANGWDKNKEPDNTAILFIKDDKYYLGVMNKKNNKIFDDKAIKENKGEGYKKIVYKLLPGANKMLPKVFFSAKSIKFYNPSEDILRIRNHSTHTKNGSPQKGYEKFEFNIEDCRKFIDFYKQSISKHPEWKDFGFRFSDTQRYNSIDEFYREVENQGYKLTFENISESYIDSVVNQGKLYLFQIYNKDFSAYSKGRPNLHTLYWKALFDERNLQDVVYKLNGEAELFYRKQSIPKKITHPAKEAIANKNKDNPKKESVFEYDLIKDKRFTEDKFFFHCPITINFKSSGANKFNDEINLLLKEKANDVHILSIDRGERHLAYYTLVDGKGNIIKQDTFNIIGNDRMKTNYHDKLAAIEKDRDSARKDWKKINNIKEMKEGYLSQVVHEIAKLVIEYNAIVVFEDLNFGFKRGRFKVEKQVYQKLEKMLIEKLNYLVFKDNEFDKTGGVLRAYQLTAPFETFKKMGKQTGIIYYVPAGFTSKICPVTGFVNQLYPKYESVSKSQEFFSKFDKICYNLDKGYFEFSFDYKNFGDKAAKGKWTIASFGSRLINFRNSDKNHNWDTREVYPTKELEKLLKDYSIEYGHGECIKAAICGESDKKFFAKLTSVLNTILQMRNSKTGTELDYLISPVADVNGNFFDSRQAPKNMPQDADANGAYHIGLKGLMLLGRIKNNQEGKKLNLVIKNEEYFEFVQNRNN

T1 sequence (Q99ZW2 whole entry): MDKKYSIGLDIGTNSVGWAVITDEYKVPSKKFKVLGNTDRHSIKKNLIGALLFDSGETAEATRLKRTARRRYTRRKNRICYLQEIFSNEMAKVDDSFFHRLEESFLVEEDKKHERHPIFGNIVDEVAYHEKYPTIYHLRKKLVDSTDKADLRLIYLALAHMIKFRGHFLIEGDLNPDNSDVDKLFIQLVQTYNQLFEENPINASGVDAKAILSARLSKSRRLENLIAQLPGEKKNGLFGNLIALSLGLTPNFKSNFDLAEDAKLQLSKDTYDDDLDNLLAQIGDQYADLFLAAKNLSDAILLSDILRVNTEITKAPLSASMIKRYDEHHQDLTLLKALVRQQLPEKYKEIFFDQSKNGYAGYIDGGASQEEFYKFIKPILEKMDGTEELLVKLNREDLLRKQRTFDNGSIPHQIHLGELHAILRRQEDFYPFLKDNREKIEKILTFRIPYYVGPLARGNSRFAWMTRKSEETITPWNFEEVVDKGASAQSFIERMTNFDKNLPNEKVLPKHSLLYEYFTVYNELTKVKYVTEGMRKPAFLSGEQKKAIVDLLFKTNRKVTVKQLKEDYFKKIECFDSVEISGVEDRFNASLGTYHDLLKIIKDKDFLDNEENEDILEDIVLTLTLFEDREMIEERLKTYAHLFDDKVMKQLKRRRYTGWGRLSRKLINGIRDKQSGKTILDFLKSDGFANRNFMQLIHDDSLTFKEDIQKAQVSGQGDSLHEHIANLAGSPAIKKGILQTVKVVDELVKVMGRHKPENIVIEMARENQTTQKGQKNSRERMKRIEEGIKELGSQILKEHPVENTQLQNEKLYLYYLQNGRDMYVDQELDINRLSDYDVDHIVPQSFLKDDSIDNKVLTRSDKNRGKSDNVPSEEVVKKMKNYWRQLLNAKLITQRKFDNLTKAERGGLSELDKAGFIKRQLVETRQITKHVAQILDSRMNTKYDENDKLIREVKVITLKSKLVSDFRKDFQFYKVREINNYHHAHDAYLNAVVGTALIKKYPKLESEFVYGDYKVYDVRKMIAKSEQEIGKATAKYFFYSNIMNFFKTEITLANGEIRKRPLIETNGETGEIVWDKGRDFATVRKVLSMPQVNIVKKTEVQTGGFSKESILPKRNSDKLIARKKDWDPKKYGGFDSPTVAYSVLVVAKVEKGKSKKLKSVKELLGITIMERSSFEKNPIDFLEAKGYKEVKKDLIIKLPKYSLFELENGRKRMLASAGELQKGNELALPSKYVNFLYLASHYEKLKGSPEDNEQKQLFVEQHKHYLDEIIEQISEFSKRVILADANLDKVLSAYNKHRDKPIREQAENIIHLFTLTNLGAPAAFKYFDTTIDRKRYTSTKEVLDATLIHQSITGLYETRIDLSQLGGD

Q: What does the source list for `N#C[C@H]1N[C@@H](CO)[C@@H]1c1ccc(C#CC2CCCC2)cc1` [BRD9822]?
A: eGFP fluorescence in the presence of eGFP-targeted SpCas9 activity (SpCas9 [1]): eGFP fluorescence is maintained; pIC50 (SpCas9 [2]): 5.26; Inhibition of CRISPR mediated gene tagging with HiBiT (bioluminescence) [3]: inhibited in a dose-dependent manner; Inhibition of SpCas9 (SpCas9 [4]): broad-spectrum CRISPR inhibitors; also recorded: similarly inhibit; Inhibition of FnCpf1 (FnCpf1): broad-spectrum CRISPR inhibitors; also recorded: similarly inhibit

Q: How did the “eGFP fluorescence in the presence of eGFP-targeted SpCas9 activity” value (SpCas9 [1]) turn out when `N#C[C@@H]1N[C@H](CO)[C@H]1c1ccc(-c2ccccc2F)cc1` [BRD7608] was run?
A: eGFP fluorescence is maintained

Q: What about the pIC50 (SpCas9 [2]) of the same molecule?
A: 5.41

Q: What about the “Inhibition of CRISPR mediated gene tagging with HiBiT (bioluminescence)” value [3] of the same molecule?
A: inhibited in a dose-dependent manner

Q: And the “Inhibition of SpCas9” value (SpCas9 [4])?
A: broad-spectrum CRISPR inhibitors; also recorded: similarly inhibit

Q: What about the “Inhibition of FnCpf1” value (FnCpf1) of the same molecule?
A: broad-spectrum CRISPR inhibitors; also recorded: similarly inhibit
